Non-standard residues stand in square brackets, D forms with d. Residues, ends and D or L forms follow the SMILES beside them. Nle = CCCC[C@H](N)C(=O)O
Each compound was assayed on DocSTm toxin. Settings: DocSTm 5 μM, peptide 50 μM, pH 8.0; average ± SD, replicates 3-48 (Table S3).
Description: The thermal shift assay was performed using a Mx3005P qPCR System (Agilent) collecting fluorescence data with a temperature ramp of 25 to 95 °C. Samples were prepared in a buffer containing 20 mM K2HPO4 and 50 mM (NH4)2SO4 at pH 8.0, with a final concentration of recombinant Doc protein at 5 μM and Phd peptides at 50 μM. SYPRO Orange dye (Sigma-Aldrich, 5000X stock in DMSO) was used to monitor protein denaturation in a final concentration of 3×. The final sample volume was 20 μL. Each condition was prepared in triplicate in each independent experiment. The melting curves were plotted using GraphPad Prism 9 (GraphPad Software, USA), and the melting temperatures were obtained by fitting the sigmoidal section of the curves to a Boltzmann sigmoid function. For the calculation of thermal shifts ΔTm, the average melting temperature of free DocSTm toxin as determined in the respective peptide measurement cycles was subtracted from the average melting temperature of DocSTm in the presence of the peptide (Table S3).

Row | Compound | Average Tm of DocSTm in the presence of peptide
1 | CCCC[C@H](NC(=O)[C@H](Cc1c[nH]c2ccccc12)NC(C)=O)C(=O)N[C@@H](CCCNC(=N)N)C(=O)N[C@@H](CC(=O)O)C(=O)N[C@@H](CCC(=O)O)C(=O)N[C@@H](Cc1ccccc1)C(=O)N[C@@H](C)C(=O)N[C@@H](C)C(=O)N[C@H](C(=O)N[C@@H](CCCC)C(=O)N[C@@H](C)C(=O)N[C@H](C(=O)N[C@@H](Cc1c[nH]cn1)C(=O)NCC(=O)N[C@@H](CC(N)=O)C(=O)N[C@@H](CCC(=O)O)C(=O)N[C@@H](CC(C)C)C(=O)N[C@@H](CCCNC(=N)N)C(=O)N[C@@H](CCC(=O)O)C(=O)N[C@@H](CC(C)C)C(=O)N[C@@H](C)C(=O)N[C@@H](CC(=O)O)C(=O)N[C@@H](CCCCN)C(=O)O)C(C)C)[C@@H](C)CC [Peptide 2] (Ac-W[Nle]RDEFAAI[Nle]AVHGNELRELADK-OH) | 66.4 ± 0.2 °C
2 | CCCC[C@H](NC(=O)[C@H](Cc1c[nH]c2ccccc12)NC(C)=O)C(=O)N[C@@H](CC(=O)O)C(=O)N[C@@H](CCCNC(=N)N)C(=O)N[C@@H](CCC(=O)O)C(=O)N[C@@H](Cc1ccccc1)C(=O)N[C@@H](C)C(=O)N[C@@H](C)C(=O)N[C@H](C(=O)N[C@@H](CCCC)C(=O)N[C@@H](C)C(=O)N[C@H](C(=O)N[C@@H](Cc1c[nH]cn1)C(=O)NCC(=O)N[C@@H](CC(N)=O)C(=O)N[C@@H](CCC(=O)O)C(=O)N[C@@H](CC(C)C)C(=O)N[C@@H](CCCNC(=N)N)C(=O)N[C@@H](CCC(=O)O)C(=O)N[C@@H](CC(C)C)C(=O)N[C@@H](C)C(=O)N[C@@H](CC(=O)O)C(=O)N[C@@H](CCCCN)C(=O)O)C(C)C)[C@@H](C)CC [Peptide 3] (Ac-W[Nle]DREFAAI[Nle]AVHGNELRELADK-OH) | 67.4 ± 0.2 °C
3 | CCCC[C@H](NC(=O)[C@H](Cc1c[nH]c2ccccc12)NC(C)=O)C(=O)N[C@@H](CC(=O)O)C(=O)N[C@@H](CC(=O)O)C(=O)N[C@@H](CCCNC(=N)N)C(=O)N[C@@H](Cc1ccccc1)C(=O)N[C@@H](C)C(=O)N[C@@H](C)C(=O)N[C@H](C(=O)N[C@@H](CCCC)C(=O)N[C@@H](C)C(=O)N[C@H](C(=O)N[C@@H](Cc1c[nH]cn1)C(=O)NCC(=O)N[C@@H](CC(N)=O)C(=O)N[C@@H](CCC(=O)O)C(=O)N[C@@H](CC(C)C)C(=O)N[C@@H](CCCNC(=N)N)C(=O)N[C@@H](CCC(=O)O)C(=O)N[C@@H](CC(C)C)C(=O)N[C@@H](C)C(=O)N[C@@H](CC(=O)O)C(=O)N[C@@H](CCCCN)C(=O)O)C(C)C)[C@@H](C)CC [Peptide 4] (Ac-W[Nle]DDRFAAI[Nle]AVHGNELRELADK-OH) | 56.8 ± 2.1 °C
4 | CCCC[C@H](NC(=O)[C@H](Cc1c[nH]c2ccccc12)NC(C)=O)C(=O)N[C@@H](CC(=O)O)C(=O)N[C@@H](CC(=O)O)C(=O)N[C@@H](CCC(=O)O)C(=O)N[C@@H](Cc1ccccc1)C(=O)N[C@@H](CCCNC(=N)N)C(=O)N[C@@H](C)C(=O)N[C@H](C(=O)N[C@@H](CCCC)C(=O)N[C@@H](C)C(=O)N[C@H](C(=O)N[C@@H](Cc1c[nH]cn1)C(=O)NCC(=O)N[C@@H](CC(N)=O)C(=O)N[C@@H](CCC(=O)O)C(=O)N[C@@H](CC(C)C)C(=O)N[C@@H](CCCNC(=N)N)C(=O)N[C@@H](CCC(=O)O)C(=O)N[C@@H](CC(C)C)C(=O)N[C@@H](C)C(=O)N[C@@H](CC(=O)O)C(=O)N[C@@H](CCCCN)C(=O)O)C(C)C)[C@@H](C)CC [Peptide 5] (Ac-W[Nle]DDEFRAI[Nle]AVHGNELRELADK-OH) | 69.7 ± 0.7 °C
5 | CCCC[C@H](NC(=O)[C@H](Cc1c[nH]c2ccccc12)NC(C)=O)C(=O)N[C@@H](CC(=O)O)C(=O)N[C@@H](CC(=O)O)C(=O)N[C@@H](CCC(=O)O)C(=O)N[C@@H](Cc1ccccc1)C(=O)N[C@@H](C)C(=O)N[C@@H](CCCNC(=N)N)C(=O)N[C@H](C(=O)N[C@@H](CCCC)C(=O)N[C@@H](C)C(=O)N[C@H](C(=O)N[C@@H](Cc1c[nH]cn1)C(=O)NCC(=O)N[C@@H](CC(N)=O)C(=O)N[C@@H](CCC(=O)O)C(=O)N[C@@H](CC(C)C)C(=O)N[C@@H](CCCNC(=N)N)C(=O)N[C@@H](CCC(=O)O)C(=O)N[C@@H](CC(C)C)C(=O)N[C@@H](C)C(=O)N[C@@H](CC(=O)O)C(=O)N[C@@H](CCCCN)C(=O)O)C(C)C)[C@@H](C)CC [Peptide 6] (Ac-W[Nle]DDEFARI[Nle]AVHGNELRELADK-OH) | 67.3 ± 1.4 °C
6 | CCCC[C@H](NC(=O)[C@H](Cc1c[nH]c2ccccc12)NC(C)=O)C(=O)N[C@@H](CC(=O)O)C(=O)N[C@@H](CC(=O)O)C(=O)N[C@@H](CCC(=O)O)C(=O)N[C@@H](Cc1ccccc1)C(=O)N[C@@H](C)C(=O)N[C@@H](C)C(=O)N[C@H](C(=O)N[C@@H](CCCC)C(=O)N[C@@H](CCCNC(=N)N)C(=O)N[C@H](C(=O)N[C@@H](Cc1c[nH]cn1)C(=O)NCC(=O)N[C@@H](CC(N)=O)C(=O)N[C@@H](CCC(=O)O)C(=O)N[C@@H](CC(C)C)C(=O)N[C@@H](CCCNC(=N)N)C(=O)N[C@@H](CCC(=O)O)C(=O)N[C@@H](CC(C)C)C(=O)N[C@@H](C)C(=O)N[C@@H](CC(=O)O)C(=O)N[C@@H](CCCCN)C(=O)O)C(C)C)[C@@H](C)CC [Peptide 7] (Ac-W[Nle]DDEFAAI[Nle]RVHGNELRELADK-OH) | 70.2 ± 0.3 °C
7 | CCCC[C@H](NC(=O)[C@H](Cc1c[nH]c2ccccc12)NC(C)=O)C(=O)N[C@@H](CC(=O)O)C(=O)N[C@@H](CC(=O)O)C(=O)N[C@@H](CCC(=O)O)C(=O)N[C@@H](Cc1ccccc1)C(=O)N[C@@H](C)C(=O)N[C@@H](C)C(=O)N[C@H](C(=O)N[C@@H](CCCC)C(=O)N[C@@H](C)C(=O)N[C@@H](CCCNC(=N)N)C(=O)N[C@@H](Cc1c[nH]cn1)C(=O)NCC(=O)N[C@@H](CC(N)=O)C(=O)N[C@@H](CCC(=O)O)C(=O)N[C@@H](CC(C)C)C(=O)N[C@@H](CCCNC(=N)N)C(=O)N[C@@H](CCC(=O)O)C(=O)N[C@@H](CC(C)C)C(=O)N[C@@H](C)C(=O)N[C@@H](CC(=O)O)C(=O)N[C@@H](CCCCN)C(=O)O)[C@@H](C)CC [Peptide 8] (Ac-W[Nle]DDEFAAI[Nle]ARHGNELRELADK-OH) | 67.8 ± 0.1 °C
8 | CCCC[C@H](NC(=O)[C@H](Cc1c[nH]c2ccccc12)NC(C)=O)C(=O)N[C@@H](CC(=O)O)C(=O)N[C@@H](CC(=O)O)C(=O)N[C@@H](CCC(=O)O)C(=O)N[C@@H](Cc1ccccc1)C(=O)N[C@@H](C)C(=O)N[C@@H](C)C(=O)N[C@H](C(=O)N[C@@H](CCCC)C(=O)N[C@@H](C)C(=O)N[C@H](C(=O)N[C@@H](Cc1c[nH]cn1)C(=O)NCC(=O)N[C@@H](CCCNC(=N)N)C(=O)N[C@@H](CCC(=O)O)C(=O)N[C@@H](CC(C)C)C(=O)N[C@@H](CCCNC(=N)N)C(=O)N[C@@H](CCC(=O)O)C(=O)N[C@@H](CC(C)C)C(=O)N[C@@H](C)C(=O)N[C@@H](CC(=O)O)C(=O)N[C@@H](CCCCN)C(=O)O)C(C)C)[C@@H](C)CC [Peptide 9] (Ac-W[Nle]DDEFAAI[Nle]AVHGRELRELADK-OH) | 72.3 ± 0.4 °C
9 | CCCC[C@H](NC(=O)[C@H](Cc1c[nH]c2ccccc12)NC(C)=O)C(=O)N[C@@H](CC(=O)O)C(=O)N[C@@H](CC(=O)O)C(=O)N[C@@H](CCC(=O)O)C(=O)N[C@@H](Cc1ccccc1)C(=O)N[C@@H](C)C(=O)N[C@@H](C)C(=O)N[C@H](C(=O)N[C@@H](CCCC)C(=O)N[C@@H](C)C(=O)N[C@H](C(=O)N[C@@H](Cc1c[nH]cn1)C(=O)NCC(=O)N[C@@H](CC(N)=O)C(=O)N[C@@H](CCCNC(=N)N)C(=O)N[C@@H](CC(C)C)C(=O)N[C@@H](CCCNC(=N)N)C(=O)N[C@@H](CCC(=O)O)C(=O)N[C@@H](CC(C)C)C(=O)N[C@@H](C)C(=O)N[C@@H](CC(=O)O)C(=O)N[C@@H](CCCCN)C(=O)O)C(C)C)[C@@H](C)CC [Peptide 10] (Ac-W[Nle]DDEFAAI[Nle]AVHGNRLRELADK-OH) | 59.5 ± 0.3 °C
10 | CCCC[C@H](NC(=O)[C@H](Cc1c[nH]c2ccccc12)NC(C)=O)C(=O)N[C@@H](CC(=O)O)C(=O)N[C@@H](CC(=O)O)C(=O)N[C@@H](CCC(=O)O)C(=O)N[C@@H](Cc1ccccc1)C(=O)N[C@@H](C)C(=O)N[C@@H](C)C(=O)N[C@H](C(=O)N[C@@H](CCCC)C(=O)N[C@@H](C)C(=O)N[C@H](C(=O)N[C@@H](Cc1c[nH]cn1)C(=O)NCC(=O)N[C@@H](CC(N)=O)C(=O)N[C@@H](CCC(=O)O)C(=O)N[C@@H](CC(C)C)C(=O)N[C@@H](CCCNC(=N)N)C(=O)N[C@@H](CCCNC(=N)N)C(=O)N[C@@H](CC(C)C)C(=O)N[C@@H](C)C(=O)N[C@@H](CC(=O)O)C(=O)N[C@@H](CCCCN)C(=O)O)C(C)C)[C@@H](C)CC [Peptide 11] (Ac-W[Nle]DDEFAAI[Nle]AVHGNELRRLADK-OH) | 73.5 ± 1.3 °C
11 | CCCC[C@H](NC(=O)[C@H](Cc1c[nH]c2ccccc12)NC(C)=O)C(=O)N[C@@H](CC(=O)O)C(=O)N[C@@H](CC(=O)O)C(=O)N[C@@H](CCC(=O)O)C(=O)N[C@@H](Cc1ccccc1)C(=O)N[C@@H](C)C(=O)N[C@@H](C)C(=O)N[C@H](C(=O)N[C@@H](CCCC)C(=O)N[C@@H](C)C(=O)N[C@H](C(=O)N[C@@H](Cc1c[nH]cn1)C(=O)NCC(=O)N[C@@H](CC(N)=O)C(=O)N[C@@H](CCC(=O)O)C(=O)N[C@@H](CC(C)C)C(=O)N[C@@H](CCCNC(=N)N)C(=O)N[C@@H](CCC(=O)O)C(=O)N[C@@H](CC(C)C)C(=O)N[C@@H](CCCNC(=N)N)C(=O)N[C@@H](CC(=O)O)C(=O)N[C@@H](CCCCN)C(=O)O)C(C)C)[C@@H](C)CC [Peptide 12] (Ac-W[Nle]DDEFAAI[Nle]AVHGNELRELRDK-OH) | 68.3 ± 0.9 °C
